Some targets named below: Cytochrome P450 2D6 (Homo sapiens, UniProt P10635); Cytochrome P450 2C9 (Homo sapiens, UniProt P11712); Cytochrome P450 3A4 (Homo sapiens, UniProt P08684).
A further assay deals with T1, Cytochrome P450 1A2 (Homo sapiens, UniProt P05177).
T1 sequence (P05177 whole entry): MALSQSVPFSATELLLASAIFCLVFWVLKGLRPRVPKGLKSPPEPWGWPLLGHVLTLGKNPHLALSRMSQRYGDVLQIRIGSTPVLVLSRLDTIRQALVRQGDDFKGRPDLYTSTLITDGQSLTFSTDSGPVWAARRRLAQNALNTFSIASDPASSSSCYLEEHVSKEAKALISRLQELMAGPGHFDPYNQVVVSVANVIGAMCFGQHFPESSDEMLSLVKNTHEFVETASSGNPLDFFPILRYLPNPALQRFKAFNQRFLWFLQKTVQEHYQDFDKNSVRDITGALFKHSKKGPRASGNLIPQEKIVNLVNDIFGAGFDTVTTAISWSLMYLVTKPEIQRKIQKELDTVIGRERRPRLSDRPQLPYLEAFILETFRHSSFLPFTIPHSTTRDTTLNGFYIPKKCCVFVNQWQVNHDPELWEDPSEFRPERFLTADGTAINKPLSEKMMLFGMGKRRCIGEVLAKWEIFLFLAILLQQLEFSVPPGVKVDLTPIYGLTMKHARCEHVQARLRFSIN

Assay [1] is described as follows: inhibitors of SNCA 5'UTR-driven reporter translation, confirmation, H4 neuroglioma cells, luminescence (AID 1988). Format: functional, cell-based.
Assay [2] can be described thus: Luminescence Cell-Based Dose Response HTS to Identify Inhibitors of 5'UTR Stem-Loop Driven Prion Protein mRNA Translation in H4 Neuroglioblastoma Cells. [Related pubchem assays: 1827 (Project Summary), 1813 (Primary HTS)]. Format: functional.
The nature of assay [3]: inhibitors of firefly luciferase expression or activity, dose response, H4 neuroglioma cells, luminescence (AID 1990). Format: functional, cell-based.
For assay [4], the target named is T2, Heat shock factor protein 1 (Mus musculus, UniProt P38532).
T2 sequence (P38532 whole entry): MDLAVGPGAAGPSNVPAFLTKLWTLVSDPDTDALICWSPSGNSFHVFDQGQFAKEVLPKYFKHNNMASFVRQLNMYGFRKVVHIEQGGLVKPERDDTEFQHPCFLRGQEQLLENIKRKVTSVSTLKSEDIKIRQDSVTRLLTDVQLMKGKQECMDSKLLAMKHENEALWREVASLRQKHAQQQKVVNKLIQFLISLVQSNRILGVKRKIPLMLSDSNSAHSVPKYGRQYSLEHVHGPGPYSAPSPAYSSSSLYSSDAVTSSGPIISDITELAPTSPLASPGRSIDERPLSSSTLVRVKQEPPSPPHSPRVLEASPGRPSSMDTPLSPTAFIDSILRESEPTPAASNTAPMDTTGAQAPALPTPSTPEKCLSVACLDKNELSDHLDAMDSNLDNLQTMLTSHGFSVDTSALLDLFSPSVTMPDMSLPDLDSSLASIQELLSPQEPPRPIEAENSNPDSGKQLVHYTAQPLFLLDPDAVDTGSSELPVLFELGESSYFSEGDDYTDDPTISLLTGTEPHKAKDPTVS
Description: inhibition of MG132-induced HSE-luciferase signal, confirmation, cell-based, NIH3T3, luminescence, dose retest (AID 2382).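 Note: NIH3T3 fibroblasts with HSF1-driven luciferase reporter stressed by proteasome inhibitor MG132; luminescence from HSF1-driven luciferase expression after 8 hours of MG132 stress.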 Format: functional.

Another assay relates to H4. Put plainly: Luminescence Cell-Based Dose Response HTS to Identify Activators of 5'UTR Stem-Loop Driven Prion Protein mRNA Translation in H4 Neuroglioblastoma Cells. [Related pubchem assays: 1829 (Project Summary), 1814 (Primary HTS)]. Format: functional. Conditions: Homo sapiens.
The nature of assay [5]: Luminescence Cell-Based Dose Confirmation HTS to Identify Activators of 5'UTR Stem-Loop Driven Alpha-Synuclein mRNA Translation in H4 Neuroglioblastoma Cells. [Related pubchem assays: 1829 (Project Summary), 1814 (Primary HTS)]. Format: functional.
Assay [6] is described as follows: Luminescence Cell-Based Dose Response HTS to Identify Activators of Luciferase Translation or Activity in H4 […] Cells. [Related pubchem assays: 1829 (Project Summary), 1814 (Primary HTS)]. Format: functional.
Assay [7] in a line: cytotoxicity toward NIH3T3 fibroblasts, dose response, counter-screen, cell-based, ATP luminescence, mouse fibroblasts (AID 2010).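 Note: cells exposed to compound for about 90 hours before reading.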 Format: functional. (Counterscreens check selectivity or assay interference.)
Assay [8] in a line: inhibitors of intracellular T. cruzi replication, confirmation, NIH3T3 host cells, beta-gal luminescence (AID 2044).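 Note: intracellular parasites grown in NIH/3T3 mouse fibroblasts as host cells; luminescent beta-galactosidase reporter signal from transgenic T. cruzi replicating inside host cells; inhibitors lower the luminescence signal.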 Format: functional, cell-based.
Another assay has as its target Cytochrome P450 2C19 (Homo sapiens, UniProt P33261). Description: Cytochrome panel assay with activity outcomes. Panel member name: p450-cyp2c19 Compounds with AC50 equal or less than 10 uM are considered active. Conditions: read-out: AC50. Format: functional.

Molecules are shown by their SMILES. Activity calls are given as the source filed them.

Usually AC50 stands for the concentration giving half of the maximal activity seen. The term EC50 denotes the midpoint of the concentration-response curve.

Chain of Cytochrome P450 2D6 (P10635 whole entry): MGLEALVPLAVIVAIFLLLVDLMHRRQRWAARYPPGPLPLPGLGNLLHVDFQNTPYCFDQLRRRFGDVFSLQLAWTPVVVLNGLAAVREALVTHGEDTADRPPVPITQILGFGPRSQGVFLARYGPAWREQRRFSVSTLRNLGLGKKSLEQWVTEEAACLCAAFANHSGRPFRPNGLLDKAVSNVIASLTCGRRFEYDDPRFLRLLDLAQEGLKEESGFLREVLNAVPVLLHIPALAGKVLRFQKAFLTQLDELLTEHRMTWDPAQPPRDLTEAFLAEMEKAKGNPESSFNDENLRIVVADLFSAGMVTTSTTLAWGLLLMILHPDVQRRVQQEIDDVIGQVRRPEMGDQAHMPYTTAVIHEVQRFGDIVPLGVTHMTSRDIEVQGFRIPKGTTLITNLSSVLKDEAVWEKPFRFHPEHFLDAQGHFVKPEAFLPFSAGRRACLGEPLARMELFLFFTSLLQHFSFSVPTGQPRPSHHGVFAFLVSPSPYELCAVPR
Chain of Cytochrome P450 3A4 (P08684 whole entry): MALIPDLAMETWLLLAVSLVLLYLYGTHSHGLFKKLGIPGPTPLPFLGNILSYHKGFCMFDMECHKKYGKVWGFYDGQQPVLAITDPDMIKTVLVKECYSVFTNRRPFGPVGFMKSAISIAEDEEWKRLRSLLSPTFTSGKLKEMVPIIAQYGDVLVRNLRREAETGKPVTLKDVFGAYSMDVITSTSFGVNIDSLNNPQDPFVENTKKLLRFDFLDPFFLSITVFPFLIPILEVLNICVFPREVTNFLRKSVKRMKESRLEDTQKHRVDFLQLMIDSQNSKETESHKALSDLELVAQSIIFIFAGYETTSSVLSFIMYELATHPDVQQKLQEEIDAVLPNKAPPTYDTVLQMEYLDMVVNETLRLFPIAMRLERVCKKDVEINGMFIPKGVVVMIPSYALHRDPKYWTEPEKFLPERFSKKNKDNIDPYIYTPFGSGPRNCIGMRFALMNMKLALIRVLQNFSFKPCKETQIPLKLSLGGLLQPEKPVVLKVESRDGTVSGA
Chain of Cytochrome P450 2C9 (P11712 whole entry): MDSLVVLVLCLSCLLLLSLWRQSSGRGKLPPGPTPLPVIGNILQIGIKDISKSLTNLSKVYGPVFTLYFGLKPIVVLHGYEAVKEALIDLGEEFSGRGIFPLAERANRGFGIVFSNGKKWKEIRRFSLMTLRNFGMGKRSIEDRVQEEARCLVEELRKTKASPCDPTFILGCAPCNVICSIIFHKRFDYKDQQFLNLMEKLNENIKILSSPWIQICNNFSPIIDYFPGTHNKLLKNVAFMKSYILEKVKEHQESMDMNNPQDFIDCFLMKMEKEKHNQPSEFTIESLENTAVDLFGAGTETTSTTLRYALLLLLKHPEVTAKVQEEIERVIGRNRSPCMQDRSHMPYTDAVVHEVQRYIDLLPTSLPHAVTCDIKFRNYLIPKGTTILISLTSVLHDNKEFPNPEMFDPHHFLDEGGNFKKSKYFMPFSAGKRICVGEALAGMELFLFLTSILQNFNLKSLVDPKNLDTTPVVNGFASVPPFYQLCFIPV
Chain of Cytochrome P450 2C19 (P33261 whole entry): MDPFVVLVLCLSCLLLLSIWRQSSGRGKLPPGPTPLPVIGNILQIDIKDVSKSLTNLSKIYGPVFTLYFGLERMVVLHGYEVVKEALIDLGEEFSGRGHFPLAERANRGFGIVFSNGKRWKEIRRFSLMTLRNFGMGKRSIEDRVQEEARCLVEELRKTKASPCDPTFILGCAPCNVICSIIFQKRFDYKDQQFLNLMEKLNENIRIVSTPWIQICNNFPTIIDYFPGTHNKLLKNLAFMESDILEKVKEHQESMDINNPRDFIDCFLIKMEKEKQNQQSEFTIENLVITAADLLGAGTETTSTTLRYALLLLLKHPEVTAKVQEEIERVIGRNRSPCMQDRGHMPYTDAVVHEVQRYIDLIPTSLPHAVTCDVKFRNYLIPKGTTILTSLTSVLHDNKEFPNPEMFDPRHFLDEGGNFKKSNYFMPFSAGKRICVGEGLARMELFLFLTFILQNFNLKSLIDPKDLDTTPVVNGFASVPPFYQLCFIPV

Regarding `COCCn1c(=O)c(-c2cccc(C#N)c2)nc2cnc(Nc3ccccc3)nc21`, the AC50 at Cytochrome P450 1A2 and at Cytochrome P450 2D6 was 2.51 µM (inconclusive) in each case.

In the case of `c1ccc(Oc2cccc(OCCn3cncn3)c2)cc1`, the EC50 in [1] was > 120 µM (not active); in assay [2] it was > 120 µM (not active); in assay [3], > 120 µM (not active); in assay [4] it was > 195 µM (not active).

Consider `COc1cccc(Nc2ncc3nc(-c4ccc(F)cc4)c(=O)n(C)c3n2)c1`, for which the AC50 at Cytochrome P450 1A2 is 3.16 µM (inconclusive).

As to `COc1ccc2nc(C)cc(SCC(=O)NNC(=O)COc3ccc(C)cc3)c2c1`, the values for the AC50 on Cytochrome P450 2C9 and at Cytochrome P450 2D6 were 1.78 µM (inconclusive) and 2 µM (inconclusive), respectively.

On to `c1ccn2c(c1)nc1c2nc2ccccn21`, for which the half-maximal effective concentration (EC50) in the assay with H4 is > 120 µM (not active); in [5], 7.67 µM (active); in assay [6], 25.1 µM (active).

For the molecule `COC(=O)C/C=C\[C@@H](C)[C@@H](/C=N\O[C@@H](C)CN1CCCc2nc(C)c(C)cc21)OC`, the results for the AC50 at Cytochrome P450 2D6 and on Cytochrome P450 3A4 were 2.51 µM (inconclusive) and 3.16 µM (inconclusive), respectively.

In the case of `Oc1nc(CN2CCN(C/C=C/c3ccccc3)CC2)nc2ccccc12`, the EC50 in [7] was > 60 µM (not active); in the assay with H4, > 120 µM (not active); in assay [8], 0.637 µM (active); in [5], > 120 µM (not active); in [6], > 120 µM (not active).

For `Cc1ccc(-n2nc3ccc(N)cc3n2)c(C)c1`, the figures for the EC50 in [1], in assay [2] and in assay [3] were 16.6 µM (active), 20.3 µM (active) and 15.2 µM (active), respectively.

Consider `C=CCOc1c(Cl)cc(C(=S)N2CCCC2)cc1OCC`, for which the EC50 with H4 was 30.3 µM (active); in [5], > 120 µM (not active); in [6], > 120 µM (not active).

For `Cc1cc(C(=O)COC(=O)Cc2nnc(O)c3ccccc23)c(C)n1-c1ccc2c(c1)OCCO2`, the EC50 in assay [7] is > 60 µM (not active); in the assay with H4, 71.5 µM (active); in [8] it was 2.28 µM (active); in [5], > 120 µM (not active); in [6], > 120 µM (not active).

For the molecule `O=[N+]([O-])c1ccc(Nc2nc3ccccc3s2)cc1`, the AC50 on Cytochrome P450 2D6 was 3.16 µM (inconclusive); at Cytochrome P450 3A4, 5.01 µM (inconclusive).

Consider `CN(C)c1ncc2nc(CCc3ccccc3)c(=O)n(Cc3cccs3)c2n1`, for which the AC50 on Cytochrome P450 2D6 is 25.1 µM (inconclusive).

For `CNCCNS(=O)(=O)c1cccc2cnccc12`, the AC50 at Cytochrome P450 2D6 is 5.01 µM (inconclusive); at Cytochrome P450 3A4, 20 µM (inconclusive).

In the case of `CC(C)Oc1ccccc1C1Nc2ccccc2C(=O)N1c1ccc2c(c1)OCCO2` (stereo unspecified), the EC50 in assay [1] is 9.51 µM (active); in assay [2] it was > 120 µM (not active).

Turning to `O=C(c1cc(C(F)(F)F)cc(C(F)(F)F)c1)N1CCC[C@@]2(CCN(Cc3nccs3)C2)C1`, the AC50 at Cytochrome P450 1A2 was 20 µM (inconclusive).

In the case of `Cc1ccc2c(c1)[C@@H]1CN(C)CC[C@@H]1N2S(=O)(=O)c1ccc(F)cc1`, the AC50 was 28.2 µM (inconclusive) at Cytochrome P450 2C19, 17.8 µM (inconclusive) on Cytochrome P450 1A2 and 0.00562 µM (inconclusive) on Cytochrome P450 2C9.

As for `NNC(=O)c1[nH]c2ccccc2c1-c1ccccc1`, the EC50 in assay [1], in assay [2] and in assay [3] was > 120 µM (not active) in each case.

As to `Nc1nc(O)c(/N=N\c2ccccc2)c(C(=O)O)n1`, the AC50 at Cytochrome P450 1A2 is 1.26 µM (inconclusive).

For the molecule `CCCCn1c(SCC(=O)Nc2nccs2)nc2ccccc2c1=O`, the figures for the AC50 on Cytochrome P450 2C19, on Cytochrome P450 1A2 and on Cytochrome P450 2C9 were 0.0708 µM (inconclusive), 0.2 µM (inconclusive) and 0.398 µM (inconclusive), respectively.

In the case of `CO[C@H]1COC(=O)[C@H]2CCCN2C(=O)C/C=C\[C@@H](C)[C@H](OC)COC(=O)[C@@H](OCc2ccccc2)/C=C\[C@@H]1C`, the AC50 on Cytochrome P450 2D6 is 3.16 µM (inconclusive); on Cytochrome P450 3A4, 3.98 µM (inconclusive).

As to `O[C@@H](COc1ccc(Cl)cc1Cl)CN1CCCC1`, on Cytochrome P450 1A2, the AC50 is 5.01 µM (inconclusive).

Take `CC[C@H](Oc1ccc(Cl)cc1)C(=O)OC1C[C@H]2CC[C@@H](C1)N2C` (stereo partly specified): the AC50 at Cytochrome P450 1A2 is 31.6 µM (inconclusive).

Take `COCC(=O)N1CCC2(CCN(Cc3ccccc3)CC2)CC1`: on Cytochrome P450 2D6, the AC50 is 25.1 µM (inconclusive).

As to `CCOC(=O)N1CCN(C(=O)CN(c2ccc(OC)cc2)S(C)(=O)=O)CC1`, the EC50 is > 120 µM (not active) in assay [1], 83.4 µM (active) in [2] and > 120 µM (not active) in assay [3].

With `Cn1c(SCc2nc(O)c3ccc(C(=O)O)cc3n2)nnc1C(F)(F)F`, the EC50 is > 120 µM (not active) in [1], 38.9 µM (active) in [2] and > 120 µM (not active) in assay [3].

In the case of `COc1cccc(-c2cc(NCc3cccnc3)ncn2)c1`, at Cytochrome P450 2D6, the half-maximal activity concentration (AC50) is 25.1 µM (inconclusive).

As to `Cc1ccc2sc(N(CCCN(C)C)C(=O)CCS(=O)(=O)c3ccccc3)nc2c1C`, the EC50 in assay [7] is 4.17 µM (active); in assay [1] it was 11.1 µM (active); in assay [2], 13.7 µM (active); in [3] it was 14.3 µM (active); in assay [8], 0.226 µM (active).

On to `COc1cc2c(cc1NC(=O)CN1CCN(S(=O)(=O)c3ccccc3F)CC1)oc1ccccc12`, for which the EC50 (in the assay with H4; in assay [5]; in assay [6]) was > 120 µM (not active) in each case.

With `O=C(NCCN1CCN(C(=O)c2cccc(Br)c2)CC1)C(=O)Nc1ccc(Br)cc1`, the EC50 in assay [1] was 65.2 µM (active); in assay [2], 18.7 µM (active); in [3], 13.8 µM (active).

Consider `COc1ccc(Nc2nc(N)nc(CSc3nc(C)cc(C)n3)n2)cc1`, for which the EC50 in assay [1] is 91.3 µM (active); in assay [2] it was > 120 µM (not active); in assay [3], 19.8 µM (active); in assay [4], > 195 µM (not active).

As to `CC1Cc2nc(SCC(=O)Nc3ccc4c(c3)OCO4)n(Cc3ccccc3)c(=O)c2S1` (stereo unspecified), the values for the EC50 (in the assay with H4; in assay [5]; in assay [6]) were 13.2 µM (active), 10.8 µM (active) and 5.9 µM (active), respectively.

As for `CS(=O)(=O)Nc1cccc(-c2ccc3ncnc(NCc4cccnc4)c3c2)c1`, at Cytochrome P450 2D6, the AC50 is 20 µM (inconclusive).

As to `CC(C)[C@@H]1COC(c2cccc(C3=N[C@H](C(C)C)CO3)c2)=N1`, the EC50 in the assay on H4 is 10.6 µM (active); in assay [5] it was > 120 µM (not active); in [6] it was 71.1 µM (active).

`CC(C)(C)NC(=O)CN(Cc1cccs1)C(=O)CCC(=O)Nc1nccs1`: the AC50 on Cytochrome P450 2D6 is 28.2 µM (inconclusive).

For the molecule `COc1ccc(C(=O)N/N=C2/SCC(=O)N2Cc2ccc3c(c2)OCO3)cc1OC`, the AC50 on Cytochrome P450 1A2 is 25.1 µM (inconclusive).

For `CN(C)C(=O)c1ccc(-c2ccc3ncnc(NCc4ccccc4)c3c2)cc1`, the AC50 on Cytochrome P450 2D6 was 31.6 µM (inconclusive).

Consider `Clc1ccc2c(NCCNc3ccnc4cc(Cl)ccc34)ccnc2c1`, for which the AC50 at Cytochrome P450 1A2 was 5.01 µM (inconclusive).

Values taken from ChEMBL document CHEMBL1201862, “PubChem BioAssay data set” (2004).
